Measured values reported in patent US20060251751A1, “Sophoridine and its use as an analgesic” (SHANGHAI FANGDA PHARMACEUTICALS, LTD., priority 2001, published 2006).
Marks after values point to notes of the source that are not given here.

Tests used:
[1] = test system: patients suffering from advanced cancers; experiment: Clinical trials in more than 200 patients with advanced cancers; assay type: in vivo, human
Male Kunming mice = experiment: Analgesic effect of sophoridine on mice model (hot plate method); assay type: in vivo; conditions: for Pain thresholds (seconds) After administration: 10 minutes after administration; for Pain thresholds (seconds) Before administration: before administration (baseline)
Description: The analgesic activity of sophoridine was tested in vivo in mice experimental models, using Hot Plate Method, which are known to evaluate the pain in animals.
The method that was used is described by Eddy N. B. and Leimbach D. (J. Pharm. Exp. Ther. 107: 385-393, 1953) and somewhat modification is made in the present invention.
Male Kunming mice weighing 18-22 g were used as experimental model. The analgesic effect of the sophoridine was evaluated by analysing the behavioral response of the animals on a hot surface at 55° C.±0.5° C. The alkaloid compounds being tested were administered intravenously through the tail vein 10 minutes before starting the test.
Briefly, the process consisted of placing the animals on the plate and keeping them in a plastic cylinder 22 cm diameter and 11 cm high. The time the animals took to lick a paw or jump off the hot surface was determined. The animals were selected before starting the test that those with response latency (the pain threshold values before administrations) longer than 30 seconds were excluded from the experiment. The certificated animals divided into six groups (10 animals/group). Five experimental groups received 25, 20, 15, 10 and 5 mg/kg of the sophoridine suspended in a normal saline solution, respectively. The control group received treatment only with the solvent (normal saline).
10 minutes after administering the alkaloids being tested, the test was repeated and the maximum response latency time (seconds) took the animals to lick the hindlimb or jump off and run away was again recorded.

Kunming mice = experiment: Analgesic effect of sophoridine on mice models (acetic acid induced writhing method); assay type: in vivo; conditions: for Number of writhe (X ± SD): 0.6% acetic acid i.p.
Description: The analgesic activity of sophoridine was also tested in vivo in mice experimental models, using acetic acid induced writhing Method which are known to evaluate the pain in animals. Writhing test is a standard procedure for detecting and comparing analgesic activity in laboratory animals, and generally correlates well with human efficacy.
30 Male and 30 female Kunming mice weighing 18-22 g were used as experimental models. […] Then, the animals randomly divided into six groups, each group includes 10 animals. Five experimental groups intravenously received 25, 20, 15, 10 and 5 mg/Kg of the sophoridine suspended in a normal saline solution via the tail vein, respectively.
The frequency of writhing syndrome was counted for 5 minutes from 15 minutes after the injection of spophoridine or placebo. The control group received treatment only with the solvent (normal saline).

mice [2] = experiment: Comparison of analgesic effects and synergistic activity between sophoridine and morphine (hot plate method); assay type: in vivo; conditions: for Pain thresholds before admin.: before admin. (baseline)
Description: In five experimental groups, animals of each group received 25, 20, 15, 10 and 5 mg/kg of the sophoridine suspended in a normal saline solution, respectively.

mice [3] = experiment: Effect of the opioid receptor antagonist naloxone on morphine- and sophoridine-induced analgesia; assay type: in vivo
Description: Following procedures of the previous Examples, screening and grouping of experimental animals was carried out. […] The animals of negative control were injected with normal saline. The pain thresholds (response latency time, seconds, of each animal was recorded at 15, 30, 60, and 90 minutes after administrations, respectively. The results are summarized in Table 4 below.

[4] = test system: acetylcholine level in central nervous system; experiment: Preliminary study on mechanism of analgesic effect (acetylcholine level in CNS)
Source text: Therefore, sophoridine and derivatives thereof are also useful for treating patients suffering from neurodegenerative diseases, senile dementia of the Alzheimer's type (SDAT) and Pakinson's disease (PD).

tumor cells = conditions: cited from earlier work
[5] = sophoridine 25 mg/kg i.v., hot plate 55°C

O=C1C=CC[C@@H]2[C@H]3CCCN4CCC[C@@H](CN12)[C@@H]34 [sophocarpine]
effect on pain caused by malignant growth of cancer tissues (in words) [1]: significantly inhibit or alleviate mild to severe pain | effect on proliferation of tumor cells (in words) [1]: inhibit proliferation of tumor cells

O=C1CCC[C@@H]2[C@H]3CCCN4CCC[C@H](CN12)[C@@H]34 [Sophoridine]
analgesic activity in mice models (in words) (Male Kunming mice; hot plate method, 5-25 mg/kg i.v.): good analgesic activity | Pain thresholds (seconds) After administration (Male Kunming mice; sophoridine 5 mg/kg i.v.): 25.8 ± 20.74 s | Pain thresholds (seconds) Before administration (Male Kunming mice; sophoridine 5 mg/kg i.v.): 16.3 ± 6.02 s | Pain thresholds (seconds) After administration (Male Kunming mice; sophoridine 10 mg/kg i.v.): 24.8 ± 15.99 s | Pain thresholds (seconds) Before administration (Male Kunming mice; sophoridine 10 mg/kg i.v.): 11.7 ± 4.59 s | Pain thresholds (seconds) After administration (Male Kunming mice; sophoridine 15 mg/kg i.v.): 38.5 ± 17.19 s | Pain thresholds (seconds) Before administration (Male Kunming mice; sophoridine 15 mg/kg i.v.): 14.7 ± 4.62 s | Pain thresholds (seconds) After administration (Male Kunming mice; sophoridine 20 mg/kg i.v.): 57.1 ± 6.10 s | Pain thresholds (seconds) Before administration (Male Kunming mice; sophoridine 20 mg/kg i.v.): 12.4 ± 4.25 s | Pain thresholds (seconds) After administration (Male Kunming mice; [5]): 48.6 ± 19.14 s | Pain thresholds (seconds) Before administration (Male Kunming mice; [5]): 16.4 ± 6.48 s | Number of writhe (X ± SD) (Kunming mice; sophoridine 5 mg/kg i.v.): 23.2 ± 6.43 | Number of writhe (X ± SD) (Kunming mice; sophoridine 10 mg/kg i.v.): 14.1 ± 9.64 | Number of writhe (X ± SD) (Kunming mice; sophoridine 15 mg/kg i.v.): 9.9 ± 6.3 | Number of writhe (X ± SD) (Kunming mice; sophoridine 20 mg/kg i.v.): 1.5 ± 1.35 | Number of writhe (X ± SD) (Kunming mice; sophoridine 25 mg/kg i.v., counted for 5 minutes from 15 minutes after injection): 0*** | analgesic activity in mice models (in words) (Kunming mice; writhing method, 5-25 mg/kg i.v.): good analgesic activity | Pain thresholds after admin. (seconds) 15 min. (mice [2]; sophoridine 5 mg/kg): 17.5 ± 3.3 s | Pain thresholds after admin. (seconds) 30 min. (mice [2]; sophoridine 5 mg/kg): 16.6 ± 6.5 s | Pain thresholds after admin. (seconds) 60 min. (mice [2]; sophoridine 5 mg/kg): 16.0 ± 4.5 s | Pain thresholds after admin. (seconds) 90 min. (mice [2]; sophoridine 5 mg/kg): 19.3 ± 5.4 s | Pain thresholds before admin. (mice [2]; sophoridine 5 mg/kg): 17.45 ± 2.6 s | Pain thresholds after admin. (seconds) 15 min. (mice [2]; sophoridine 10 mg/kg): 20.2 ± 7.2 s | Pain thresholds after admin. (seconds) 30 min. (mice [2]; sophoridine 10 mg/kg): 28.0 ± 18.3 s | Pain thresholds after admin. (seconds) 60 min. (mice [2]; sophoridine 10 mg/kg): 12.6 ± 5.9 s | Pain thresholds after admin. (seconds) 90 min. (mice [2]; sophoridine 10 mg/kg): 20.5 ± 15.0 s | Pain thresholds before admin. (mice [2]; sophoridine 10 mg/kg): 18.6 ± 4.9 s | Pain thresholds after admin. (seconds) 15 min. (mice [2]; sophoridine 15 mg/kg): 32.9 ± 19.2 s | Pain thresholds after admin. (seconds) 30 min. (mice [2]; sophoridine 15 mg/kg): 31.3 ± 17.5 s | Pain thresholds after admin. (seconds) 60 min. (mice [2]; sophoridine 15 mg/kg): 15.2 ± 10.2 s | Pain thresholds after admin. (seconds) 90 min. (mice [2]; sophoridine 15 mg/kg): 15.8 ± 5.7 s | Pain thresholds before admin. (mice [2]; sophoridine 15 mg/kg): 16.45 ± 3.9 s | Pain thresholds after admin. (seconds) 15 min. (mice [2]; sophoridine 20 mg/kg): 36.8 ± 18.2 s | Pain thresholds after admin. (seconds) 30 min. (mice [2]; sophoridine 20 mg/kg): 24.6 ± 7.7 s | Pain thresholds after admin. (seconds) 60 min. (mice [2]; sophoridine 20 mg/kg): 23.0 ± 9.9 s | Pain thresholds after admin. (seconds) 90 min. (mice [2]; sophoridine 20 mg/kg): 19.3 ± 6.6 s | Pain thresholds before admin. (mice [2]; sophoridine 20 mg/kg): 16.9 ± 2.5 s | Pain thresholds after admin. (seconds) 15 min. (mice [2]; sophoridine 25 mg/kg): 44.3 ± 14.9 s | Pain thresholds after admin. (seconds) 30 min. (mice [2]; sophoridine 25 mg/kg): 28.3 ± 11.4 s | Pain thresholds after admin. (seconds) 60 min. (mice [2]; sophoridine 25 mg/kg): 20.3 ± 4.9 s | Pain thresholds after admin. (seconds) 90 min. (mice [2]; sophoridine 25 mg/kg): 18.8 ± 6.3 s | Pain thresholds before admin. (mice [2]; sophoridine 25 mg/kg): 15.4 ± 4.0 s | analgesic activity compared to morphine hydrochloride (in words) (mice [2]; sophoridine in higher doses, hot plate): comparable or better analgesic activity | naloxone counteracting the analgesic effect (in words) (mice [3]; naloxone 2.0 mg/kg, morphine 10 mg/kg or sophoridine 20 mg/kg): ineffective in counteracting the effect | Pain thresholds after admin. (seconds) 15 min. (mice [3]; sophoridine alone 20 mg/kg i.v., 15 min.): 34.5 ± 16.2 s | Pain thresholds after admin. (seconds) 30 min. (mice [3]; sophoridine alone 20 mg/kg i.v., 30 min.): 23.8 ± 7.0 s | Pain thresholds after admin. (seconds) 60 min. (mice [3]; sophoridine alone 20 mg/kg i.v., 60 min.): 21.8 ± 8.9 s | Pain thresholds after admin. (seconds) 90 min. (mice [3]; sophoridine alone 20 mg/kg i.v., 90 min.): 18.3 ± 6.6 s | Pain thresholds before admin. (mice [3]; sophoridine alone 20 mg/kg i.v., before admin. (baseline)): 17.9 ± 2.6 s | effect on pain caused by malignant growth of cancer tissues (in words) [1]: significantly inhibit or alleviate mild to severe pain | effect on proliferation of tumor cells (in words) [1]: inhibit proliferation of tumor cells | side effects of tolerance and addiction (in words) ([1]; higher doses for a long term): did not develop any side effects of tolerance and addiction | acetylcholine level in central nervous system (in words) [4]: significant increasing acetylcholine level | anti-tumor activities (in words) (tumor cells; Xuemei Li et al. 1987): tumor cell-killing and tumor cell growth-inhibiting activities | effect on functions of hematopoietic and immunological systems (in words) (tumor cells; Xuemei Li et al.): does not inhibit the functions of hematopoietic and immunological systems
